# Results from patent publication US20130196865A1, “METHOD FOR SELECTING AN IPS CELL” (THE GENERAL HOSPITAL CORPORATION, priority 2010, published 2013).
# How the values were obtained:
# [1] = system: Meg3/Gtl2 expression in Gtl2^off iPSC clone #45 subclones; assay: Valproic acid treatment of Gtl2off iPSC subclones, Meg3/Gtl2 expression by qPCR; format: cell-based, mouse
# Protocol: (§1) cDNA was produced with the First Strand cDNA Synthesis Kit (Roche) using 1 μg of total RNA input. Real-time quantitative PCR reactions were set up in triplicate using 5 μl of cDNA (1:100 dilution) with the Brilliant II SYBR Green QPCR Master Mix (Stratagene) and run on a Mx3000P QPCR System (Stratagene).
# [2] = system: chromatin marks at the Gtl2 promoter; assay: Chromatin immunoprecipitation at the Meg3/Gtl2 locus after VA rescue; format: cell-based, mouse; conditions: VA-rescued clone
# Protocol: 20 million iPSCs, ESCs or MEFs were fixed with 1% formaldehyde for 10 minutes at room temperature (RT) and then lysed in 1 ml lysis buffer (50 mM Tris-HCl, pH 8.0, 10 mM EDTA, 1% SDS, protease inhibitors) for 20 minutes on ice. The lysate was split into three tubes and sonicated using Bioruptor for five times five minutes at high intensity, 30 sec on-30 sec off. After 10 minutes centrifugation, the supernatant was precleared for 1 hour at 4° C. with agarose beads preblocked with BSA (1 mg BSA for 10 ml beads) in IP Buffer (50 mMM Tris-HCl, pH8, 150 mM NaCl, 2 mM EDTA, 1% NP-40, 0.5% Sodium Deoxycholate, 0.1% SDS, protease inhibitors). […] of precleared chromatin per reaction diluted in 1 ml IP Buffer in presence of 2 ug antibody were used for each immunoprecipitation reaction according to manufacturer's protocol. The antibodies used for this study were: anti-aCH3 (06-5 99 Millipore), anti-acH4 (06-866, Millipore), anti-dimethyl K4 of H3 (07-030, Millipore), anti-trimethyl K27 of H3 (ab6002, Abcam) and normal rabbit IgG (Millipore). The precipitate was purified using Qiaquick PCR purification kit and was analyzed by qPCR using Brilliant II SYBR Green qPCR Master Mix (600828, Agilent Technologies) using the sequence specific primer sets. Gtl2: 5′-[…]-3′ (FWD) and 5′-[…]3′ (REV) and Pou5f1: 5′-[…]-3′ (FWD) and 5′-[…]-3′ (REV).
# [3] = system: development of all-iPSC embryos/pups; assay: 4n blastocyst injection of VA-rescued iPSC clone; format: in vivo, mouse
# Protocol: 2n and 4n blastocyst injections were performed as described before (Eggan, K et al., PNAS USA 98(11):6209 (2001)). Briefly, female BDF1 mice were super-ovulated by intraperitoneal injection of PMS and hCG and mated to BDF1 stud males. Zygotes were isolated from females with a vaginal plug 24 hour after hCG injection. Zygotes for 2n injections were in vitro cultured for 3 days in vitro in KSOM media, blastocysts were identified, injected with ESCs or iPSCs and transferred into pseudopregnant recipient females. For 4n injections, zygotes were cultured overnight until they reached the 2-cell stage, at which point they were electrofused.
# [4] = system: Gtl2^off and Gtl2^on iPSCs, ESCs; assay: Retinoic acid in vitro differentiation of iPSCs and ESCs, qPCR; format: cell-based, mouse; conditions: for Meg3/Gtl2 and Rian expression during differentiation: RA 5 days
# Protocol: To assess if silencing of Meg3/Gtl2 might be resolved during differentiation, Gtl2^off and Gtl2^on iPSCs as well as ESCs were exposed to the differentiation-stimulating agent retinoic acid (RA) for 5 days. […] The expression of imprinted genes outside of chromosome 12qF1 was not affected (FIG. 3f, bottom, and FIG. 10)
# as §1
# [5] = system: Dlk1-Dio3 locus (IG-DMR) methylation in iPSCs; assay: Derivation of iPS cells in the presence of ascorbic acid, DNA methylation at the Dlk1-Dio3 locus; format: cell-based, mouse
# Protocol: These are 1) repression of an enzyme called Dnmt3a or 2) addition of ascorbic acid (Vitamin C) to do cell culture media during reprogramming (FIG. 15).
# MEFs with a doxycycline-inducible polycistronic reprogramming cassette in their genome (Stadtfeld, M. et al. A reprogrammable mouse strain from gene-targeted embryonic stem cells. Nature methods 7(1):53-5) were reprogrammed into iPS cells by culture in either doxycycline-containing ESC media or doxycycline-containing ESC media with 50 ng/μl ascorbic acid (Sigma A4544). Doxycline was withdrawn after 10-14 days of culture and emerging iPS cell colonies picked and expanded in regular ESC culture media (without doxycycline, without ascorbic acid). Pluripotency of established iPS cell clones was confirmed by marker gene expression and blastocyst injections.
# Genomic DNA was isolated using the DNeasy Blood and Tissue Kit (Qiagen) and bisulfite converted using the EpiTect Bisulfite Kit (Qiagen) with 100-1000 ng input. Converted DNA was used for PCR to amplify the regulatory IG-DMR region and PCR products were sequenced using the Pyrosequencing PSQ96 HS System (Biotage AB) (Stadtfeld, M. et al. Aberrant silencing of imprinted genes on chromosome 12qF1 in mouse induced pluripotent stem cells).
smiles,measurement,setting,value
CCCC(CCC)C(=O)O [valproic acid],subclones exhibiting increased Meg3/Gtl2 expression,[1]; Gtl2^off iPSC subclones treated with VA,two out of 21
same,Meg3/Gtl2 expression level of rescued clone,"[1]; one VA-treated iPSC clone, versus ESCs",comparable to ESCs
same,activation-associated chromatin marks at the Meg3/Gtl2 locus,[2],re-appearance of H3K4 methylation and H3 acetylation
same,full-term development after 4n blastocyst injection,"[3]; VA-rescued clone, not seen with parental iPSCs",supported the development of several full-term pups
same,phenotype of full-term pups,[3]; pups from VA-rescued clone,"severely overgrown, however, and hence non-viable"
"CC1=C(/C=C/C(C)=C/C=C/C(C)=C/C(=O)O)C(C)(C)CCC1 [retinoic acid, all-trans retinoic acid]",Meg3/Gtl2 and Rian expression during differentiation,[4]; Gtl2^off iPSCs,stable silencing
same,Dlk1 expression upon differentiation,"[4]; Gtl2^off iPSCs, RA treated",express high levels
same,Meg3/Gtl2 and Rian expression during differentiation,[4]; Gtl2^on iPSCs and ESCs,readily upregulated
same,Pou5f1 expression,"[4]; all RA-treated clones, 5 days",downregulation of Pou5f1
O=C1O[C@H]([C@@H](O)CO)C(O)=C1O [ascorbic acid],abnormal methylation in iPSCs,[5]; FIG. 15b,prevents abnormal methylation
same,"frequency of ""normal iPSCs""",[5]; ascorbic acid added to culture media during reprogramming,dramatically increased
